Results as given in PubChem BioAssay (NCI).
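Where inhibition never reached the appropriate level, the endpoint shown equals the highest concentration tested. Otherwise, values were interpolated linearly from a five-concentration, 48-hour dose response in 96-well plates. The concentration for full growth arrest is given as TGI.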

Assays:
Assay in all cases: NCI-60 cell line screen, 48 h
CCRF-CEM leukemia = tested on: CCRF-CEM leukemia
DU-145 prostate = tested on: DU-145 prostate
EKVX NSCLC = tested on: EKVX NSCLC
HOP-62 NSCLC = tested on: HOP-62 NSCLC
HS 578T breast = tested on: HS 578T breast
MDA-MB-435 = tested on: MDA-MB-435
MDA-N = tested on: MDA-N
MOLT-4 leukemia = tested on: MOLT-4 leukemia
NCI-H226 lung = tested on: NCI-H226 lung
NCI-H460 lung = tested on: NCI-H460 lung
NCI-H522 lung = tested on: NCI-H522 lung
OVCAR-4 ovarian = tested on: OVCAR-4 ovarian
OVCAR-5 ovarian = tested on: OVCAR-5 ovarian
OVCAR-8 ovarian = tested on: OVCAR-8 ovarian
SF-268 CNS = tested on: SF-268 CNS
SF-539 CNS = tested on: SF-539 CNS
SN12C renal = tested on: SN12C renal
SR leukemia = tested on: SR leukemia
T-47D breast = tested on: T-47D breast
UO-31 renal = tested on: UO-31 renal

Compound `CSc1n[nH]c2n[nH]c(C)c12` has a TGI (CCRF-CEM leukemia) of over 100 µM, a TGI (DU-145 prostate) of over 100 µM and a TGI (EKVX NSCLC) of over 100 µM. It also gave a TGI (HOP-62 NSCLC) of over 100 µM, a TGI (HS 578T breast) of over 100 µM and a TGI (MDA-MB-435) of over 100 µM. For the same compound, the TGI (MDA-N) was over 100 µM, the TGI (MOLT-4 leukemia) was over 100 µM and the TGI (NCI-H226 lung) was over 100 µM. For the same compound, the TGI (NCI-H460 lung) was over 100 µM, the TGI (NCI-H522 lung) was over 100 µM and the TGI (OVCAR-4 ovarian) was over 100 µM. The TGI (OVCAR-5 ovarian) was over 100 µM, the TGI (OVCAR-8 ovarian) was over 100 µM and the TGI (SF-268 CNS) was over 100 µM. For the same compound, the TGI (SF-539 CNS) was over 100 µM, the TGI (SN12C renal) was over 100 µM and the TGI (SR leukemia) was over 100 µM. For the same compound, the TGI (T-47D breast) was over 100 µM and the TGI (UO-31 renal) was over 100 µM.

`COC(=O)CCSC1=CC(=O)c2nc3ccccc3c3ccnc1c23` gave a TGI (CCRF-CEM leukemia) of over 26.6 µM, a TGI (DU-145 prostate) of 48.1 µM and a TGI (EKVX NSCLC) of 40.7 µM. For the same compound, the TGI (HOP-62 NSCLC) was over 100 µM, the TGI (HS 578T breast) was 67.8 µM and the TGI (MDA-MB-435) was over 27.5 µM. The TGI (MDA-N) was 87.2 µM, the TGI (MOLT-4 leukemia) was 50.4 µM and the TGI (NCI-H226 lung) was over 100 µM. It also gave a TGI (NCI-H460 lung) of 41.3 µM, a TGI (NCI-H522 lung) of 3.74 µM and a TGI (OVCAR-4 ovarian) of 41.9 µM. For the same compound, the TGI (OVCAR-5 ovarian) was over 71.4 µM, the TGI (OVCAR-8 ovarian) was over 56.3 µM and the TGI (SF-268 CNS) was 34.3 µM. The TGI (SF-539 CNS) was 29.8 µM, the TGI (SN12C renal) was 40.7 µM and the TGI (SR leukemia) was over 51.5 µM. The TGI (T-47D breast) was 44.1 µM and the TGI (UO-31 renal) was 31.7 µM.

Compound `O=C1C(Cl)C(c2cccc(Br)c2)N1c1c(O)c(Cl)cc(Br)c1Cl` (stereo not given) has a TGI (CCRF-CEM leukemia) of 41.3 µM, a TGI (DU-145 prostate) of 32.9 µM and a TGI (EKVX NSCLC) of 39 µM. For the same compound, the TGI (HOP-62 NSCLC) was 32.4 µM, the TGI (HS 578T breast) was 24 µM and the TGI (MDA-MB-435) was 31.1 µM. It also gave a TGI (MDA-N) of 53.3 µM, a TGI (MOLT-4 leukemia) of 35.7 µM and a TGI (NCI-H226 lung) of 51.8 µM. For the same compound, the TGI (NCI-H460 lung) was 27.1 µM, the TGI (NCI-H522 lung) was 30 µM and the TGI (OVCAR-4 ovarian) was 24.7 µM. For the same compound, the TGI (OVCAR-5 ovarian) was 56.5 µM, the TGI (OVCAR-8 ovarian) was over 100 µM and the TGI (SF-268 CNS) was 44.3 µM. For the same compound, the TGI (SF-539 CNS) was 32.6 µM, the TGI (SN12C renal) was 28.3 µM and the TGI (SR leukemia) was 56.3 µM. It also gave a TGI (T-47D breast) of 44.6 µM and a TGI (UO-31 renal) of 40 µM.

`CCCCCCCCCCCCCCC[C@@H](O)C[N+](C)(C)CCO` was tested, and the TGI (CCRF-CEM leukemia) was 11.5 µM, the TGI (DU-145 prostate) was 48.2 µM and the TGI (EKVX NSCLC) was 37.4 µM. The TGI (HOP-62 NSCLC) was over 100 µM, the TGI (HS 578T breast) was 7.53 µM and the TGI (MDA-MB-435) was 33.4 µM. It also gave a TGI (MDA-N) of 29.5 µM, a TGI (MOLT-4 leukemia) of over 24.5 µM and a TGI (NCI-H226 lung) of 14 µM. It also gave a TGI (NCI-H460 lung) of 5.01 µM, a TGI (NCI-H522 lung) of 4.35 µM and a TGI (OVCAR-4 ovarian) of 22.9 µM. The TGI (OVCAR-5 ovarian) was 11.4 µM, the TGI (OVCAR-8 ovarian) was 30 µM and the TGI (SF-268 CNS) was 6.66 µM. The TGI (SF-539 CNS) was 21.8 µM, the TGI (SN12C renal) was 50.8 µM and the TGI (SR leukemia) was over 23.6 µM. For the same compound, the TGI (T-47D breast) was 55.6 µM and the TGI (UO-31 renal) was 35.6 µM.
